In the supplement of paper PMC9386025:

Legend:
Test in all cases: drug sensitivity score (DSS) (DSS (dimensionless)); higher = more sensitive (stronger drug response)
FIMM-PDC1 = patient-derived ovarian cancer cells; settings: genetic perturbation: none (patient-derived cell culture)
Method in brief: (§1)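 Ovarian cancer cell lines, with shRNA induced by 100 ng/ml doxycycline for at least three days, and patient-derived cultures were seeded at 1 000 – 1 500 cells per well in 384-well plates holding drugs pre-plated in five concentrations over a 10,000-fold range. After three days at 37 °C and 5.0 % CO2, viability was read as CellTiter-Glo luminescence on a PHERAstar FS. Each drug's dose-response curve was summarised as a drug sensitivity score calculated as previously described.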

OVSAHO = test system: OVSAHO
Method in brief: as §1

FIMM-PDC7 = patient-derived ovarian cancer cells; settings: genetic perturbation: none (patient-derived cell culture)
Method in brief: as §1

JHOS2 = test system: JHOS2
Method in brief: as §1

FIMM-PDC3 = patient-derived ovarian cancer cells; settings: genetic perturbation: none (patient-derived cell culture)
Method in brief: as §1

FIMM-PDC5 = patient-derived ovarian cancer cells; settings: genetic perturbation: none (patient-derived cell culture)
Method in brief: as §1

FIMM-PDC4 = patient-derived ovarian cancer cells; settings: genetic perturbation: none (patient-derived cell culture)
Method in brief: as §1

Kuramochi = test system: Kuramochi
Method in brief: as §1

FIMM-PDC6 = patient-derived ovarian cancer cells; settings: genetic perturbation: none (patient-derived cell culture)
Method in brief: as §1

[1] = genetic perturbation: DOX-induced PTK7 shRNA knockdown
[2] = genetic perturbation: DOX-induced control shRNA

Compound | drug sensitivity score (FIMM-PDC1) | drug sensitivity score (OVSAHO; [1]) | drug sensitivity score (OVSAHO; [2]) | drug sensitivity score (FIMM-PDC7) | drug sensitivity score (JHOS2; [1]) | drug sensitivity score (JHOS2; [2]) | drug sensitivity score (FIMM-PDC3) | drug sensitivity score (FIMM-PDC5) | drug sensitivity score (FIMM-PDC4) | drug sensitivity score (Kuramochi; [1]) | drug sensitivity score (Kuramochi; [2]) | drug sensitivity score (FIMM-PDC6)
COc1cc(Nc2c(C#N)cnc3cc(OCCCN4CCN(C)CC4)c(OC)cc23)c(Cl)cc1Cl [Bosutinib] | 7.4 | 12.1 | 8.7 | 6.5 | 9.3 | 10.9 | 10.5 | 14.3 | 13.7 | 10.6 | 6.4 | 12.3
Cn1nccc1Nc1nccc(-c2ccn([C@H](CO)c3ccc(Cl)c(F)c3)c(=O)c2)n1 [Ravoxertinib] | 1.2 | < 0 | 2.4 | 2.6 | 1.5 | 3.6 | 2.2 | 9.2 | 7.9 | 3.45 | < 0 | 6.6
CC[C@H](CC#N)OC(=O)N[C@@H](C)c1cccc(NC(=O)Nc2ccc(-c3cnco3)c(OC)c2)c1 [AVN944] | 7.65 | 11.7 | 9.7 | 10 | 5.8 | 9.6 | 12 | 18.1 | 7.4 | 9.7 | 8.9 | 6.6
COc1ccc(S(=O)(=O)Nc2cccnc2Nc2ccc(O)cc2)cc1 [ABT-751] | 8.8 | 7 | 5.4 | 6.8 | 10.2 | 6.3 | 9.7 | 11.8 | 9.6 | 7.95 | 3.6 | 5.1
CC(C)Nc1cc(-c2c[nH]c(C(=O)N[C@H](CO)c3cccc(Cl)c3)c2)c(Cl)cn1 [Ulixertinib] | 0.15 | 7.3 | 5 | 12 | 2.8 | 6.8 | 6.4 | 14.3 | 13.1 | 10.2 | 3.3 | 12.3
COc1cc(C(=O)O)ccc1NC(=O)[C@@H]1N[C@@H](CC(C)(C)C)[C@](C#N)(c2ccc(Cl)cc2F)[C@H]1c1cccc(Cl)c1F [Idasanutlin] | 0.5 | 1.1 | < 0 | 15.7 | < 0 | < 0 | 5.2 | 22.5 | 5 | 0.95 | < 0 | 15.6
CC(C)c1cc(-c2n[nH]c(=O)n2-c2ccc3c(ccn3C)c2)c(O)cc1O [Ganetespib] | 13.4 | < 0 | 10.8 | 14 | 13.7 | 12.5 | 12.9 | 14.3 | 19.5 | 11.1 | 1.9 | 13.6
CC(C)C[C@H](NC(=O)[C@H](Cc1ccccc1)NC(=O)c1cnccn1)B(O)O [Bortezomib] | 29.1 | 24.2 | 11.6 | 31.9 | 25.7 | 23.6 | 30.6 | 27.4 | 28.8 | 16.3 | 20.1 | 31.8
CC1(COc2ccc3c(c2)ncn3-c2ccc3cccc(N4CCC(N)CC4)c3n2)COC1 [Crenolanib] | 3.55 | 3.8 | 3.7 | 4.7 | 8.5 | 5.7 | 5.3 | 8.5 | 5 | 3.65 | 2.9 | 4
C=C1C[C@@H]2CC[C@@]34C[C@H]5O[C@H]6[C@@H](O3)[C@H]3O[C@H](CC[C@@H]3O[C@H]6[C@H]5O4)CC(=O)C[C@@H]3[C@@H](OC)[C@@H](C[C@H](O)CN)O[C@H]3C[C@H]3O[C@@H](CC[C@@H]1O2)C[C@@H](C)C3=C [Eribulin] | 15.9 | 18.6 | 15.3 | 12.2 | 19 | 11.7 | 20.7 | 25.5 | 21.1 | 18.6 | 5.7 | 12.3
COc1cccc2c1C(=O)c1c(O)c3c(c(O)c1C2=O)C[C@@](O)(/C(CO)=N/NC(=O)CCCCCN1C(=O)C=CC1=O)C[C@@H]3O[C@H]1C[C@H](N)[C@H](O)[C@H](C)O1 [Aldoxorubicin] | 5.7 | 7.9 | 5.1 | 8.4 | 7.9 | 7.4 | 7.4 | 6.6 | 8.5 | 5.45 | 4.9 | 7
C=CC(=O)N1CC/C(=C\c2ccc(F)c([N+](=O)[O-])c2)C(=O)/C(=C/c2ccc(F)c([N+](=O)[O-])c2)C1 [VLX1570] | 12.1 | 23.2 | 19.4 | 20.5 | 25.9 | 15.3 | 18.5 | 22.3 | 16.9 | 23.4 | 16.4 | 19.6
COc1ccc(-c2ccc3c(N4CCOC[C@@H]4C)nc(N4CCOC[C@@H]4C)nc3n2)cc1CO [AZD8055] | 13.9 | 20.7 | 19 | 25.7 | 11.8 | 17 | 12.9 | 29.2 | 21.2 | 15.9 | 16.8 | 21.8
COC(=O)C[C@](O)(CCCC(C)(C)O)C(=O)O[C@@H]1C(OC)=C[C@]23CCCN2CCc2cc4c(cc2[C@H]13)OCO4 [Omacetaxine] | 23.7 | 21.7 | 21.7 | 23.8 | 20.8 | 21.6 | 27.2 | 21.3 | 22.9 | 23.8 | 14.3 | 25.3
